Test results published in patent US5602100A, “Dermorphin analogs having pharmacological activity” (priority 1988, dated 1997).
Where two headings read alike, the source gives them in different places. Non-standard residues stand in square brackets, D forms with d. Residues, ends and D or L forms follow the SMILES beside them. dNle = CCCC[C@@H](N)C(=O)O; dNva = CCC[C@@H](N)C(=O)O; Orn = NCCC[C@H](N)C(=O)O; Dab = NCC[C@H](N)C(=O)O; Nva = CCC[C@H](N)C(=O)O

Tests used:
δ-opioid receptor = molecular target: T1, δ-opioid receptor (Rattus norvegicus, UniProt P33533); assay: biochemical; assay type: binding
T1 construct: displacement of the radioligands from the rat brain membrane preparations; from tissue; host or cells: rat brain membrane preparations

hot plate stimulus = assay: Mouse hot plate test; assay type: in vivo
Experimental: The mouse hot plate test is an assay which only detects centrally-mediated analgesic effects. This test was carried out using the protocol described in G. Woolfe and A. MacDonald, J. Pharmacol. Exp. Ther., 80, p. 300 ([…]).
Since most of the peptides of the invention were not potent centrally, it was impossible to determine an ED50 value. […] A result is considered insignificant if 30% of mice or lower have responded.

μ-opioid receptor = molecular target: T2, μ-opioid receptor (Rattus norvegicus, UniProt P33535); assay: biochemical; assay type: binding
T2 construct: displacement of the radioligands from the rat brain membrane preparations; from tissue; host or cells: rat brain membrane preparations

PBQ-induced writhing [1] = assay: Mouse writhing test (PBQ); assay type: in vivo; details: for PBQ (20 min.) ED50: dose reducing the number of writhes by 50%
Experimental: The mouse writhing test detects both peripherally and centrally mediated analgesic effects. The test procedure is described in Siegmund et al., Proc. Soc. Exp. Biol. Med., 95, p. 729 (1957). In this test, a control group of albino mice was injected intraperitoneally with 0.3 ml/20 g body weight of a 0.02% solution of 2-phenyl-1,4-benzoquinone (PBQ). The writhing and contortional movements of the mice over the following 15 minutes were recorded. A second group of mice was given a dose of a synthetic dermorphin analog according to this invention, then allowed to wait a period of time before being administered the PBQ injection. The average number of writhes was then recorded and compared to the control group. The results of this test are expressed as the dosage of peptide that reduces the number of writhes by 50% at a given time interval (referred to as ED50).

[2] = Respiration rate (respiratory depression); assay type: in vivo, rat; details: control 142 ± 5
Experimental: In addition to the mouse writhing data, respiratory depression was measured in certain treated mice. Respiratory depression is a commonly observed side effect characteristic of centrally-acting opiates. These reulsts are expressed in Table 5.

PBQ-induced writhing [3] = assay: Mouse writhing test with prior N-methyllevallorphan (NML); assay type: in vivo; details: 10 mg/kg N-methyllevallorphan before peptide
Experimental: A variation of the mouse writhing experiment was also conducted to determine peripheral versus central binding preferences of certain peptides of this invention. In this experiment, 10 mg/kg of N-methyllevallorphan (NML), a known peripheral opioid antagonist, was administered to the mice before injection of the synthetic dermorphin peptide.

guinea pig ileum (GPI) [4] = assay: Ke values for naloxone as antagonist in the GPI assay; assay type: cell-based; details: mean of three determinations ± SEM
Experimental: κ-receptor interactions were determined by measuring Ke values for naloxone as an antagonist in the GPI assay. High Ke values (in the range of 20-30 nM) are associated with κ-receptor interactions. Low Ke values (in the range of 1-2 nM) are associated with μ-receptor interactions. Ke values for naloxone were determined from the ratio of IC50 values obtained in the presence of and in the absence of a fixed naloxone concentration. The IC50 values of the tested compounds were normalized according to published procedure (F. M. Leslie, "Methods Used for the Study of Opioid Receptors", Pharmacological Reviews, 39 (1987)).

mouse vas deferens (MVD) = assay type: cell-based
guinea pig ileum (GPI) [5] = assay type: cell-based

T2 sequence (P33535 whole entry): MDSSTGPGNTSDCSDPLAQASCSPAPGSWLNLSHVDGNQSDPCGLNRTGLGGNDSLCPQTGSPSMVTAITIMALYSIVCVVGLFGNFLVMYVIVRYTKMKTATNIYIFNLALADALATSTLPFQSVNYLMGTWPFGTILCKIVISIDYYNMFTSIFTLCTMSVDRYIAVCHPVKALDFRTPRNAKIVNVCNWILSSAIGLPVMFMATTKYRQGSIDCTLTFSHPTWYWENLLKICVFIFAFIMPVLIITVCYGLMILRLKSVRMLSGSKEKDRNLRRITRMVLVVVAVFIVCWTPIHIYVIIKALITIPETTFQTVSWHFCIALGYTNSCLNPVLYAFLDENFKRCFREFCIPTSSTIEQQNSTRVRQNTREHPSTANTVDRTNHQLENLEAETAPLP
T1 sequence (P33533 whole entry): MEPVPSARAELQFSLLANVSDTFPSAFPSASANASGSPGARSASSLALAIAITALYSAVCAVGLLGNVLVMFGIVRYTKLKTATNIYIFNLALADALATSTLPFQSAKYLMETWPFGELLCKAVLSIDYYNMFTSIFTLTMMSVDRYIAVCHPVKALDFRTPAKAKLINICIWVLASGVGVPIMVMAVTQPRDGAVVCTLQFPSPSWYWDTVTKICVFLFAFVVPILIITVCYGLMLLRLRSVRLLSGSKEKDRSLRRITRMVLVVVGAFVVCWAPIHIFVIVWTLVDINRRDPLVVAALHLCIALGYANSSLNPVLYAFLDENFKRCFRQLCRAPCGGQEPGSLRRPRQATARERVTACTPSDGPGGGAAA

Row | Compound | Ki (δ-opioid receptor) [nM] | Ki (μ-opioid receptor) [nM] | Ki^δ /Ki^μ (μ-opioid receptor) | PBQ (20 min.) ED50 (PBQ-induced writhing [1]) [mg/kg] | Breaths per min. ([2]; dose 30 mg/kg) [breaths per min.] | Ke (naloxone) (guinea pig ileum (GPI) [4]) [nm] | IC50 (mouse vas deferens (MVD)) [nM] | IC50 (guinea pig ileum (GPI) [5]) [nM] | % of animals showing a 50% increase (hot plate stimulus; dose 40 mg/kg, time 120 min.) [%] | further results
1 | CCC[C@H](NC(=O)[C@H](Cc1ccccc1)NC(=O)[C@@H](CCCNC(=N)N)NC(=O)[C@@H](N)Cc1ccc(O)cc1)C(N)=O [BCH-1788, H-Tyr-D-Arg-Phe-Nva-NH2] (H-Y[dR]F[Nva]-NH2) | > 2530 | 11.7 | > 216 | 1.3 | 163 ± 9 | – | – | – | – | % of animals showing a 50% increase (hot plate stimulus; dose 40 mg/kg, time 60 min.): 45%; % of animals showing a 50% increase (hot plate stimulus; dose 100 mg/kg, time 60 min.): 60%; Breaths per min. ([2]; dose 100 mg/kg): 125 ± 4 breaths per min.
2 | CCC[C@@H](NC(=O)[C@@H](N)Cc1ccc(O)cc1)C(=O)N[C@@H](Cc1ccccc1)C(=O)N[C@@H](CCCCN)C(N)=O [BCH-2200, H-Tyr-D-Nva-Phe-Lys-NH2] (H-Y[dNva]FK-NH2) | > 2530 | 2.27 | > 1110 | 0.3 | – | – | – | – | – | Antagonism of antinociceptive effect by prior NML (PBQ-induced writhing [3]): partially or totally antagonized
3 | NCCCC[C@H](NC(=O)[C@H](Cc1ccccc1)NC(=O)[C@@H](CCCN=C(N)N)NC(=O)[C@@H](N)Cc1ccc(O)cc1)C(N)=O [BCH-150, H-Tyr-D-Arg-Phe-Lys-NH2] | – | – | – | 0.65 | 121 ± 6 | 1.17 ± 0.08 | 781 ± 146 | 338 ± 41 | – | Ki (δ-opioid receptor; read-out: [3H]HSLET Ki^δ): 19200 nM; Hot plate ED50 (hot plate stimulus; mouse, in vivo): 19 mg/kg; Antagonism of antinociceptive effect by prior NML (PBQ-induced writhing [3]): partially or totally antagonized
4 | N=C(N)NCCC[C@@H](NC(=O)[C@@H](N)Cc1ccc(O)cc1)C(=O)N[C@@H](Cc1ccccc1)C(=O)N[C@@H](CCN)C(N)=O [BCH-1764, H-Tyr-D-Arg-Phe-A2 bu-NH2] (H-Y[dR]F[Dab]-NH2) | 12600 | 5.78 | 2180 | 0.13 | – | 1.32 ± 0.05 | 659 ± 123 | 257 ± 56 | – | % of animals showing a 50% increase (hot plate stimulus; dose 40 mg/kg, time 60 min.): 100%; MVD relative potency (mouse vas deferens (MVD)): 0.0173 ± 0.0032; GPI relative potency (guinea pig ileum (GPI) [5]): 0.956 ± 0.208; MVD/GPI IC50 ratio (guinea pig ileum (GPI) [5]): 2.56
5 | H-Tyr-D-Ala-Gly-Phe(NMe)-Gly-ol [DAGO, reference compound] | – | – | – | – | – | 0.800 ± 0.100 | 950 ± 269 | 28 ± 3.7 | – | –
6 | CC(C)C[C@H](NC(=O)[C@H](Cc1ccccc1)NC(=O)CNC(=O)CNC(=O)[C@@H](N)Cc1ccc(O)cc1)C(=O)O [Leu-enkephalin, [Leu^5]enkephalin, reference compound] | – | – | – | – | – | 1.53 ± 0.43 | – | – | – | –
7 | CN1CC[C@]23c4c5ccc(O)c4O[C@H]2[C@@H](O)C=C[C@H]3[C@H]1C5 [morphine, reference compound] | – | – | – | – | 104 ± 6 | – | – | – | – | ED50 (hot plate stimulus; Mus musculus): 2.7 mg/kg; ratio of ED50 for PBQ assay over ED50 for the hot plate assay (hot plate stimulus; peripheral/central activity ratio): 4.5; Antagonism of antinociceptive effect by prior NML (PBQ-induced writhing [3]): not antagonized; ED50 (PBQ-induced writhing [1]; Mus musculus, 20 min, read-out: PBQ (20 min.) ED50, dose reducing the number of writhes by 50%): 0.6 mg/kg
8 | CCCC[C@@H](NC(=O)[C@@H](N)Cc1ccc(O)cc1)C(=O)N[C@@H](Cc1ccccc1)C(=O)N[C@@H](CCCCN)C(N)=O [BCH-2205, H-Tyr-D-Nle-Phe-Lys-NH2] (H-Y[dNle]FK-NH2) | 3800 | 12.4 | 306 | 1.8 | 158 ± 7 | – | – | – | – | % of animals showing a 50% increase (hot plate stimulus; dose 40 mg/kg, time 30 min.): 60%; % of animals showing a 50% increase (hot plate stimulus; dose 100 mg/kg, time 60 min.): 60%; Breaths per min. ([2]; dose 100 mg/kg): 150 ± 4 breaths per min.
9 | CC(C)[C@@H](NC(=O)[C@@H](N)Cc1ccc(O)cc1)C(=O)N[C@@H](Cc1ccccc1)C(=O)N[C@@H](CCCCN)C(N)=O [BCH-2206, H-Tyr-D-Val-Phe-Lys-NH2] (H-Y[dV]FK-NH2) | > 2530 | 6.58 | > 384 | 4.8 | 168 ± 13 | – | – | – | 30 | % of animals showing a 50% increase (hot plate stimulus; dose 100 mg/kg, time 120 min.): 90%
10 | N=C(N)NCCC[C@@H](NC(=O)[C@@H](N)Cc1ccc(O)cc1)C(=O)N[C@@H](Cc1ccccc1)C(=O)N[C@@H](CCCN)C(N)=O [BCH-1765, H-Tyr-D-Arg-Phe-Orn-NH2] | – | – | 7740 | < 1 | – | 1.24 ± 0.12 | 1090 ± 279 | 346 ± 121 | 100 | Ki (δ-opioid receptor; read-out: [3H]HSLET Ki^δ): 9290 nM; Ki (μ-opioid receptor; read-out: [3H]DAGO Ki^μ): 1.2 nM; MVD relative potency (mouse vas deferens (MVD)): 0.0105 ± 0.0027; GPI relative potency (guinea pig ileum (GPI) [5]): 0.712 ± 0.249; MVD/GPI IC50 ratio (guinea pig ileum (GPI) [5]): 3.15
11 | CCCC[C@@H](NC(=O)[C@@H](N)Cc1ccc(O)cc1)C(=O)N[C@@H](Cc1ccccc1)C(=O)N[C@@H](CCCN)C(N)=O [BCH-1763, H-Tyr-D-Nle-Phe-Orn-NH2] (H-Y[dNle]F[Orn]-NH2) | – | – | 2130 | 0.3 | 162 ± 10 | 1.01 ± 0.18 | 2290 ± 270 | 168 ± 33 | 90 | Ki (δ-opioid receptor; read-out: [3H]HSLET Ki^δ): 2870 nM; Ki (μ-opioid receptor; read-out: [3H]DAGO Ki^μ): 1.35 nM; MVD relative potency (mouse vas deferens (MVD)): 0.00498 ± 0.00058; GPI relative potency (guinea pig ileum (GPI) [5]): 1.46 ± 0.29; MVD/GPI IC50 ratio (guinea pig ileum (GPI) [5]): 13.6
12 | NCCCC[C@H](NC(=O)[C@H](Cc1ccccc1)NC(=O)[C@@H](CO)NC(=O)[C@@H](N)Cc1ccc(O)cc1)C(N)=O [BCH-2209, H-Tyr-D-Ser-Phe-Lys-NH2] (H-Y[dS]FK-NH2) | > 2530 | 24.1 | > 105 | 2.8 | – | – | – | – | – | % of animals showing a 50% increase (hot plate stimulus; dose 40 mg/kg, time 30 min.): 40%; % of animals showing a 50% increase (hot plate stimulus; dose 100 mg/kg, time 30 min.): 40%
13 | C[C@@H](NC(=O)[C@@H](N)Cc1ccc(O)cc1)C(=O)N[C@@H](Cc1ccccc1)C(=O)N[C@@H](CCCCN)C(N)=O [BCH-1789, H-Tyr-D-Ala-Phe-Lys-NH2] (H-Y[dA]FK-NH2) | 4430 | 33.3 | 133 | 0.6 | 182 ± 24 | – | – | – | 40 | % of animals showing a 50% increase (hot plate stimulus; dose 100 mg/kg, time 60 min.): 80%
